What was measured:
[1] = test system: release of mature IL-1β, human monocytes; assay: "In vivo" human monocyte pulse chase assay, inhibition of release of mature IL-1β; type: cell-based; details: fixed S. aureus stimulation, 2-3 donors
Description: In vivo inhibition (IC50) was determined as follows:
Human monocytes were isolated from heparinized leukopheresis units obtained through Biological Specialty Corporation (Lansdale, Pa.). Monocytes were purified by Ficoll-Hupaque (Pharmacia Fine Chemicals, Piscataway, N.J.) gradient centrifugation and more than 95% pure monocyte populations obtained by centrifugal elutriation. The assay was performed on duplicate samples of freshly isolated human monocytes, cultured in suspension at 37° C. and rotated gently in conical bottom polypropylene tubes (Sardstedt Inc., Princeton, N.J.). Human monocytes at a concentration of 5×10^6 cells/mL were resuspended in 1 mL of RPMI 1640 (a common tissue buffer from M.A. Bioproducts, Walkersville, Md.) containing 1% fetal calf serum (FCS) (HyClone, Logan, Utah) and 50 μg/mL gentamycin (Gibco, Grand Island, N.Y.). The cells were treated either with a compound of the invention (i.e. test compound) or with a non-inhibitor (control compound, typically 0.03% DMSO) for 15 minutes and then activated with 0.01% fixed Staphylococcus aureus (The Enzyme Center, Malden, Mass.) for 1 hour. […]
In the monocyte pulse chase assay, each test parameter was run in duplicate. […] When test compounds were evaluated, the percent inhibition of release of mature IL-1β was calculated as follows: […]

IL-1β protease = molecular target: T1, IL-1β protease (Homo sapiens, UniProt P29466); assay: In vitro IL-1β protease inhibition (HPLC, TRITC-AYVHDAPVRS-NH2 substrate); type: biochemical; details: 15 min preincubation, 60 min at 37° C., 67 μM substrate
T1 sequence (P29466 120-297 limits assumed): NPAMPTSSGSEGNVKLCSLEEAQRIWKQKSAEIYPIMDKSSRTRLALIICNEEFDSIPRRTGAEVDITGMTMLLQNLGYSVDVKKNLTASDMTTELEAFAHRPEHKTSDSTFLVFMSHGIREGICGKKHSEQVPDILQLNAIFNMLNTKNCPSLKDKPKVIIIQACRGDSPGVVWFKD
Description: Compounds of the present invention were tested for IL-1β protease inhibition activity according to the following protocols:
Partially purified IL-1β protease is stored at -80° C., thawed on ice, and preincubated for 10 minutes at 37° C. with 2.5 mM dithiothreitol in a buffer solution containing 10 mM Tris-HCl (pH 8.0) and 25% (v/w) glycerol. Inhibitors are prepared as stock solutions in dimethyl sulfoxide (DMSO). The protease is preincubated with inhibitor in a volume of 20 μL in a 1.5 mL polypropylene microcentrifuge tube for 15 minutes at 37° C. The volume of compound added to the assay is adjusted to yield a DMSO concentration in the preincubation of <15% (v/v). The enzyme assay is then initiated by the addition of substrate (TRITC-AYVHDAPVRS-NH2) (SEQ I.D. No. 1) [drawing 5] to yield a final concentration of 67 μM in a final volume of 30 μL. The reaction are carried out for 60 minutes at 37° C. in the dark and are terminated by the addition of […] (TFA). Following the addition of 115 μL of 0.1 % TFA, the samples are analyzed by high pressure liquid chromatography using a reverse phase (C18) column and elution with an acetonitrile/water/TFA gradient. Substrate and product are monitored by their absorbance at 550 nm and elute at 4.2 and 5.2 minutes, respectively.

[2] = test system: Acute Myelogenous Leukemia Blast; details: AML; cited from earlier work
rats = details: PG-APS model of arthritis in rats; cited from earlier work
[3] = test system: Patients with Rheumatoid Arthritis; details: small open-label human trial; cited from earlier work
colon = details: ulcerative colitis model; cited from earlier work
[4] = test system: chronic myelogenous leukemia cells; details: cells removed from leukemia patients (CML); cited from earlier work

## C=CCN(Cc1ccc(Cl)cc1Cl)C(=O)CCl [Example 1]
[1]
  IC50: < 10 µM
IL-1β protease
  IC50: ≤ 1 µM

## IL-1 ra: naturally occurring IL-1β receptor antagonist
[2]
  inhibition of Acute Myelogenous Leukemia Blast Proliferation: Inhibition of Acute Myelogenous Leukemia Blast Proliferation
rats
  joint swelling: supresses joint swelling
[3]
  efficacy in Rheumatoid Arthritis trial: shows efficacy
colon
  tissue necrosis and number of inflammatory cells in the colon: reduced tissue necrosis and the number of inflammatory cells in the colon
[4]
  inhibition of colony growth: inhibit colony growth

Reference: patent US5834514A, “Halomethyl amides as IL-1β protease inhibitors” (Vertex Pharmaceuticals, Incorporated, priority 1996, dated 1998)
